What is called IC50 is the point on the concentration scale where inhibition reaches its midpoint. Read a high IC50 as lower potency.

These results are taken from patent US7420056B2, “Substituted bicyclic imidazo-3-ylamine compounds” (Gruenenthal GmbH, priority 2004, dated 2008).

Structures can show the parent of a compound that is named as a salt.

mGluR5 receptor, sequence (I3LUI7 19-1212): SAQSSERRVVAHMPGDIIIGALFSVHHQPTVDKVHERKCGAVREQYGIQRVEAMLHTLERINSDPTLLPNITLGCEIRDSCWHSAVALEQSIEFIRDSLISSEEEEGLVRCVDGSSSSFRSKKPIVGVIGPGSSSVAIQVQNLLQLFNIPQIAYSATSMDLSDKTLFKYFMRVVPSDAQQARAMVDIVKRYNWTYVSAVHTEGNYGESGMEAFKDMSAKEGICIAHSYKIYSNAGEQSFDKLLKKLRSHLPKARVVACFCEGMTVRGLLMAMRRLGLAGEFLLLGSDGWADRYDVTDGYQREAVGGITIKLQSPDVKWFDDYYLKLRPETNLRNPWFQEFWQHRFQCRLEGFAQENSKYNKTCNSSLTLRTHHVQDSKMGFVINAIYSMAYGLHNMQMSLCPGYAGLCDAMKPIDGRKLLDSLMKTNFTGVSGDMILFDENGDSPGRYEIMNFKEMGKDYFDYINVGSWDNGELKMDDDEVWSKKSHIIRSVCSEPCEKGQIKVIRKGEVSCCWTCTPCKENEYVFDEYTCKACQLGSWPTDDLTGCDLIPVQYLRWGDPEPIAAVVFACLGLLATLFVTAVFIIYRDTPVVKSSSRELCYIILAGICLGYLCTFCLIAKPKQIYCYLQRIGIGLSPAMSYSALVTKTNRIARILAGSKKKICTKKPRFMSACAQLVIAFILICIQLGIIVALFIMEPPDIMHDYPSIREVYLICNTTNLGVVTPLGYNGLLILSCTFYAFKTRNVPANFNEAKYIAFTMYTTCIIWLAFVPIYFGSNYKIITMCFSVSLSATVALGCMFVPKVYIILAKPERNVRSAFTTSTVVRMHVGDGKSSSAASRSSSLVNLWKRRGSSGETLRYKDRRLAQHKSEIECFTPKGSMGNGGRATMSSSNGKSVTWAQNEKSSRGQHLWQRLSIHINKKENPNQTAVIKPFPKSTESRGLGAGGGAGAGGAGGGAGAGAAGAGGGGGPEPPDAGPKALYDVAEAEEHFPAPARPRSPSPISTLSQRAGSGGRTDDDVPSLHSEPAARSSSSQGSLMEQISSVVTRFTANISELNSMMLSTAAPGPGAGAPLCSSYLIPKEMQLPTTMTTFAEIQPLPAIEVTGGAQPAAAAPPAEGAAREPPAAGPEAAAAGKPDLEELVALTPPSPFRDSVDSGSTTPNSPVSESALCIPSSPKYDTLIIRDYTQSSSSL

The assay deals with mGluR5 receptor (Sus scrofa, UniProt I3LUI7). As to the kind of experiment: Affinity for the mGluR5 receptor: inhibition of 3[H]-MPEP binding in pig brain homogenate. The note with it: 3[H]-MPEP binding. The gist of the method:
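Test compounds were screened at 10 μM for displacement of 5 nM [3H]-MPEP from pig brain homogenate (450 μg protein, pH 8.0 Hepes buffer) over 60 min at room temperature. After filtration, scintillation counting gave the read-out. 10 μM unlabelled MPEP set nonspecific binding.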
`CC(C)(C)Nc1c(-c2ccc(C#Cc3ccccc3)s2)nc2c3ccccc3ccn12` [Example 125, N-tert-butyl-2-(5-(phenylethynyl)thiophen-2-yl)imidazo[2,1-a]isoquinolin-3-amine] registered a concentration for half-maximal inhibition (IC50) of 6520 nM.
Take `CC(C)(C)Nc1c(-c2ccc(C#Cc3ccccc3)nc2)nc2cnccn12` [Example 126, N-tert-butyl-2-(6-(phenylethynyl)pyridin-3-yl)imidazo[1,2-a]pyrazin-3-amine]: the IC50 was 3250 nM.
The compound `CC(C)(C)Nc1c(-c2ccc(C#Cc3ccc(N)nc3)s2)nc2cnccn12` [Example 128, 2-(5-((6-aminopyridin-3-yl)ethynyl)thiophen-2-yl)-N-tert-butylimidazo[1,2-a]pyrazin-3-amine hydrochloride] had an IC50 of 15600 nM.
In turn, `CC(C)(C)Nc1c(-c2ccc(C#Cc3ncccn3)s2)nc2cnccn12` [Example 129, N-tert-butyl-2-(5-(pyrimidin-2-ylethynyl)thiophen-2-yl)imidazo[1,2-a]pyrazin-3-amine hydrochloride] registered a concentration for half-maximal inhibition (IC50) of 12 nM.
The result for `Cc1ccnc(C#Cc2ccc(-c3nc4cnccn4c3NC(C)(C)C)s2)c1` [Example 130, N-tert-butyl-2-(5-((4-methylpyridin-2-yl)ethynyl)thiophen-2-yl)imidazo[1,2-a]pyrazin-3-amine hydrochloride] reads 37 nM; that for `Cc1ccc(C#Cc2ccc(-c3nc4cnccn4c3NC(C)(C)C)s2)nc1` [Example 131, N-tert-butyl-2-(5-((5-methylpyridin-2-yl)ethynyl)thiophen-2-yl)imidazo[1,2-a]pyrazin-3-amine hydrochloride], 140 nM; that for `CC(C)(C)Nc1c(-c2ccc(C#Cc3ccncc3)s2)nc2ccccn12` [Example 132, N-tert-butyl-2-(5-(pyridin-4-ylethynyl)thiophen-2-yl)imidazo[1,2-a]pyridin-3-amine hydrochloride], 16 nM.
Take `CC(C)(C)Nc1c(-c2ccc(C#Cc3nccs3)s2)nc2cnccn12` [Example 133, N-tert-butyl-2-(5-(thiazol-2-ylethynyl)thiophen-2-yl)imidazo[1,2-a]pyrazin-3-amine]: the 50% inhibitory concentration (IC50) stood at 15 nM.
In the case of `Nc1c(-c2ccc(C#Cc3ccccn3)s2)nc2cnccn12` [Example 134, 2-(5-(pyridin-2-ylethynyl)thiophen-2-yl)imidazo[1,2-a]pyrazin-3-amine hydrochloride], the half-maximal inhibitory concentration (IC50) came out at 570 nM.
As for `Cc1ccc(C#Cc2ccc(-c3nc4cnccn4c3NC(C)(C)C)s2)s1` [Example 135, N-tert-butyl-2-(5-((5-methylthiophen-2-yl)ethynyl)thiophen-2-yl)imidazo[1,2-a]pyrazin-3-amine hydrochloride], the IC50 was 1200 nM.
As for `CC(C)(C)Nc1c(-c2ccc(C#Cc3cccc(N)n3)s2)nc2cnccn12` [Example 136, 2-(5-((6-aminopyridin-2-yl)ethynyl)thiophen-2-yl)-N-tert-butylimidazo[1,2-a]pyrazin-3-amine hydrochloride], the IC50 came out at 13800 nM.
As to `Cc1ccsc1C#Cc1ccc(-c2nc3cnccn3c2NC(C)(C)C)s1` [Example 137, N-tert-butyl-2-(5-((3-methylthiophen-2-yl)ethynyl)thiophen-2-yl)imidazo[1,2-a]pyrazin-3-amine], the half-inhibitory concentration (IC50) stood at 860 nM.
The result for `CC(C)(C)Nc1c(-c2nc(C#Cc3ccccc3)cs2)nc2cnccn12` [Example 138, N-tert-butyl-2-(4-(phenylethynyl)thiazol-2-yl)imidazo[1,2-a]pyrazin-3-amine] reads 15100 nM; that for `Cc1cccc(C#Cc2ccc(-c3nc4cnccn4c3NC(C)(C)C)s2)c1` [Example 139, N-tert-butyl-2-(5-(m-tolylethynyl)thiophen-2-yl)imidazo[1,2-a]pyrazin-3-amine], 71 nM; that for `CC(C)(C)Nc1c(-c2ccc(C#Cc3cccc(C#N)c3)s2)nc2cnccn12` [Example 140, 3-((5-(3-(tert-butylamino)imidazo[1,2-a]pyrazin-2-yl)thiophen-2-yl)ethynyl)benzonitrile hydrochloride], 26 nM.
For `CC(C)(C)Nc1c(-c2ccc(C#Cc3ccccn3)s2)nc2ncccn12` [Example 141, N-tert-butyl-2-(5-(pyridin-2-ylethynyl)thiophen-2-yl)imidazo[1,2-a]pyrimidin-3-amine], the IC50 turned out to be 2.8 nM.
The result for `CN(c1c(-c2ccc(C#Cc3ccccn3)s2)nc2cnccn12)C(C)(C)C` [Example 143, N-tert-butyl-N-methyl-2-(5-(pyridin-2-ylethynyl)thiophen-2-yl)imidazo[1,2-a]pyrazin-3-amine] reads 3.2 nM; that for `CC(C)(C)Nc1c(-c2ccc(C#Cc3ccc(C#N)cc3)s2)nc2cnccn12` [Example 144, 4-((5-(3-(tert-butylamino)imidazo[1,2-a]pyrazin-2-yl)thiophen-2-yl)ethynyl)benzonitrile hydrochloride], 3680 nM.
As to `CC(C)(C)Nc1c(-c2cnc(C#Cc3ccccc3)s2)nc2cnccn12` [Example 146, N-tert-butyl-2-(2-(phenylethynyl)thiazol-5-yl)imidazo[1,2-a]pyrazin-3-amine], the half-inhibitory concentration (IC50) is 35 nM.
Turning to `CC(C)(C)Nc1c(-c2ccc(C#Cc3cccc(-n4cccc4)c3)s2)nc2cnccn12` [Example 148, 2-(5-((3-(1H-pyrrol-1-yl)phenyl)ethynyl)thiophen-2-yl)-N-tert-butylimidazo[1,2-a]pyrazin-3-amine hydrochloride], the IC50 came out at 330 nM.
Compound `CC(C)(C)Nc1c(-c2ccc(C#Cc3cccc([N+](=O)[O-])c3)s2)nc2cnccn12` [Example 150, N-tert-butyl-2-(5-((3-nitrophenyl)ethynyl)thiophen-2-yl)imidazo[1,2-a]pyrazin-3-amine hydrochloride] registered a half-inhibitory concentration (IC50) of 110 nM.
The result for `CC(C)(C)Nc1c(-c2ccc(C#Cc3cscn3)s2)nc2cnccn12` [Example 152, N-tert-butyl-2-(5-(thiazol-4-ylethynyl)thiophen-2-yl)imidazo[1,2-a]pyrazin-3-amine hydrochloride] reads 23 nM; that for `CC(C)(C)Nc1c(-c2ccc(C#Cc3ccccc3O)s2)nc2cnccn12` [Example 153, 2-((5-(3-(tert-butylamino)imidazo[1,2-a]pyrazin-2-yl)thiophen-2-yl)ethynyl)phenol], 2990 nM.
Compound `CC(C)(C)Nc1c(-c2ccc(C#Cc3cccc(CN)c3)s2)nc2cnccn12` [Example 154, 2-(5-((3-(aminomethyl)phenyl)ethynyl)thiophen-2-yl)-N-tert-butylimidazo[1,2-a]pyrazin-3-amine] registered a half-maximal inhibitory concentration (IC50) of 590 nM.
In turn, `CC(C)(C)Nc1c(-c2ccc(C#Cc3ccsc3)s2)nc2cnccn12` [Example 156, N-tert-butyl-2-(5-(thiophen-3-ylethynyl)thiophen-2-yl)imidazo[1,2-a]pyrazin-3-amine hydrochloride] returned an IC50 of 27 nM.
Then `CN(C)c1cccc(C#Cc2ccc(-c3nc4cnccn4c3NC(C)(C)C)s2)c1` [Example 157, N-tert-butyl-2-(5-((3-(dimethylamino)phenyl)ethynyl)thiophen-2-yl)imidazo[1,2-a]pyrazin-3-amine hydrochloride], with 1550 nM; and `Cc1cccc(C#Cc2ccc(-c3nc4cnccn4c3NC(C)(C)C)s2)n1` [Example 158, N-tert-butyl-2-(5-((6-methylpyridin-2-yl)ethynyl)thiophen-2-yl)imidazo[1,2-a]pyrazin-3-amine hydrochloride], with 33 nM; and `CC(C)(C)Nc1c(-c2ccc(C#Cc3ncccc3F)s2)nc2cnccn12` [Example 159, N-tert-butyl-2-(5-((3-fluoropyridin-2-yl)ethynyl)thiophen-2-yl)imidazo[1,2-a]pyrazin-3-amine hydrochloride], with 10 nM.
Turning to `CNc1cccc(C#Cc2ccc(-c3nc4cnccn4c3NC(C)(C)C)s2)c1` [Example 160, N-tert-butyl-2-(5-((3-(methylamino)phenyl)ethynyl)thiophen-2-yl)imidazo[1,2-a]pyrazin-3-amine hydrochloride], the IC50 amounted to 94 nM.
Regarding `Cc1ccc(C#Cc2ccc(-c3nc4cnccn4c3NC(C)(C)C)s2)cc1` [Example 161, N-tert-butyl-2-(5-(p-tolylethynyl)thiophen-2-yl)imidazo[1,2-a]pyrazin-3-amine], the concentration for half-maximal inhibition (IC50) came to 7740 nM.
The result for `Cc1ccccc1C#Cc1ccc(-c2nc3cnccn3c2NC(C)(C)C)s1` [Example 162, N-tert-butyl-2-(5-(o-tolylethynyl)thiophen-2-yl)imidazo[1,2-a]pyrazin-3-amine hydrochloride] reads 4240 nM.
Consider `Cc1cc(-c2nc3cnccn3c2NC(C)(C)C)sc1C#Cc1ccccn1` [Example 164, N-tert-butyl-2-(4-methyl-5-(pyridin-2-ylethynyl)thiophen-2-yl)imidazo[1,2-a]pyrazin-3-amine hydrochloride], for which the IC50 was 54 nM.
In turn, `CC(C)(C)Nc1c(-c2ccc(C#Cc3cccc(F)n3)s2)nc2cnccn12` [Example 165, N-tert-butyl-2-(5-((6-fluoropyridin-2-yl)ethynyl)thiophen-2-yl)imidazo[1,2-a]pyrazin-3-amine] displayed a 50% inhibitory concentration (IC50) of 18 nM.
`CC(C)(C)Nc1c(-c2ccc(C#Cc3ccccc3[N+](=O)[O-])s2)nc2cnccn12` [Example 166, N-tert-butyl-2-(5-((2-nitrophenyl)ethynyl)thiophen-2-yl)imidazo[1,2-a]pyrazin-3-amine] showed a 50% inhibitory concentration (IC50) of 11300 nM.
Then `CC(C)(C)Nc1c(-c2ccc(C#Cc3ccccn3)s2)nc2c(Cl)nccn12` [Example 167, N-tert-butyl-8-chloro-2-(5-(pyridin-2-ylethynyl)thiophen-2-yl)imidazo[1,2-a]pyrazin-3-amine], with 12 nM; and `COc1cccc(C#Cc2ccc(-c3nc4cnccn4c3NC(C)(C)C)s2)n1` [Example 168, N-tert-butyl-2-(5-((6-methoxypyridin-2-yl)ethynyl)thiophen-2-yl)imidazo[1,2-a]pyrazin-3-amine], with 640 nM.
